Experimental data reported in paper PMC10817917, “Alkyl deoxyglycoside-polymyxin combinations against critical priority carbapenem-resistant gram-negative bacteria” (Scientific Reports, 2024).
Values after ≈ are worked out from the molar mass of the structure shown. Like-named read-outs stand apart in the source and are kept apart here.

Key:
E. coli ATCC 25922 = test: Broth microdilution MIC/MBC, glycosides with or without polymyxins; type: cell-based, Escherichia coli; details: for MIC: Escherichia coli, ATCC25922
K. pneumoniae CQ4921 = test: as above; type: cell-based, Klebsiella pneumoniae; details: for MIC: Klebsiella pneumoniae, CQ4921
E. cloacae CQ1941 = test: as above; type: cell-based; details: for MIC: Enterobacter cloacae, CQ1941
K. pneumoniae CQ1947 = test: Broth microdilution MIC, glycosides with or without polymyxins; type: cell-based, Klebsiella pneumoniae; details: for MIC: Klebsiella pneumoniae, CQ1947
Caco-2 cells = test: Resazurin cell viability assay (cytotoxicity); type: cell-based, human; details: read-out: IC50
Outline: (§1)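 HEK-293T and Caco-2 cells (1.5 × 10^4/well, RPMI 1640 with 10% FBS) exposed 72 h at 37 °C to glycosides at final 100 to 10 µM, alone or with PMB or colistin at final 0.5, 0.25 or 0.125 µg/mL; max DMSO 0.33%. Resazurin added 4 h, read 570/600 nm; IC50 from dose-response fits, mean ± SD of three replicates.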

HEK-293T cells = test: Resazurin cell viability assay (cytotoxicity); type: cell-based, human; details: 72 h, read-out: IC50
Outline: as §1

[1] = tested on: Bacillus anthracis (Sterne, ovine and pathogenic forms), Enterococcus faecalis and Bacillus cereus; details: Gram-positive bacteria; cited from earlier work
[2] = alone, read-out: MICA (MIC of each compound individually)
[3] = combination with the lowest FICI
[4] = compound + colistin, lowest FICI

SMILES: CCCCCCCCCCCCO[C@H]1O[C@H](C)C[C@H](O)[C@H]1O [Compound 1, dodecyl 4,6-dideoxy-α/β-D-xylo-hexopyranoside]
- MIC of colistin in combination with the compound (E. coli ATCC 25922; Cpd conc. 0.4 μg/mL, strain A): > 0.5 µg/mL
- MIC of colistin in combination with the compound (E. coli ATCC 25922; Cpd conc. 0.8 μg/mL, strain A): > 0.5 µg/mL
- MIC of colistin in combination with the compound (E. coli ATCC 25922; Cpd conc. 3.125 μg/mL, strain A): 0.25 µg/mL
- MIC of colistin in combination with the compound (E. coli ATCC 25922; Cpd conc. 6.25 μg/mL, strain A): 0.25 µg/mL
- MIC of colistin in combination with the compound (E. coli ATCC 25922; Cpd conc. 12.5 μg/mL, strain A): 0.25 µg/mL
- MIC of colistin in combination with the compound (E. coli ATCC 25922; Cpd conc. […], strain A): > 0.5 µg/mL
- MIC (E. coli ATCC 25922; agent alone, no adjuvant (polymyxin conc. 0), strain A, read-out: MIC): > 100 µg/mL
- MIC (E. coli ATCC 25922; [2]): > 100 µg/mL
- MIC of compound in combination with PMB (E. coli ATCC 25922; PMB 0.25 μg/mL, strain A): > 100 µg/mL
- MIC of compound in combination with PMB (E. coli ATCC 25922; PMB 0.5 μg/mL, strain A): 3.1 µg/mL
- MIC of compound in combination with colistin (E. coli ATCC 25922; colistin 0.06 μg/mL, strain A): > 100 µg/mL
- MIC of compound in combination with colistin (E. coli ATCC 25922; colistin 0.125 μg/mL, strain A): > 100 µg/mL
- MIC of compound in combination with colistin (E. coli ATCC 25922; colistin 0.25 μg/mL, strain A): 3.1 µg/mL
- MIC of compound in combination with colistin (E. coli ATCC 25922; colistin 0.5 μg/mL, strain A): 3.1 µg/mL
- MICA(A + B) (MIC of compound in combination with colistin) (E. coli ATCC 25922; [3]): 3.125 µg/mL
- MICB(A + B) (MIC of colistin in combination with compound) (E. coli ATCC 25922; [3]): 0.25 µg/mL
- Interpretation (of FICI) (E. coli ATCC 25922; compound + colistin): Additive (from 0.5 to 1.0 were additive)
- FICI (E. coli ATCC 25922; [4]): 0.52
- MIC of colistin in combination with the compound (K. pneumoniae CQ4921; Cpd conc. 0.4 μg/mL, strain C): > 0.5 µg/mL
- MIC of colistin in combination with the compound (K. pneumoniae CQ4921; Cpd conc. 0.8 μg/mL, strain C): > 0.5 µg/mL
- MIC of colistin in combination with the compound (K. pneumoniae CQ4921; Cpd conc. 3.125 μg/mL, strain C): 0.25 µg/mL
- MIC of colistin in combination with the compound (K. pneumoniae CQ4921; Cpd conc. 6.25 μg/mL, strain C): 0.25 µg/mL
- MIC of colistin in combination with the compound (K. pneumoniae CQ4921; Cpd conc. 12.5 μg/mL, strain C): 0.25 µg/mL
- MIC of colistin in combination with the compound (K. pneumoniae CQ4921; Cpd conc. […], strain C): 0.5 µg/mL
- MIC (K. pneumoniae CQ4921; agent alone, no adjuvant (polymyxin conc. 0), strain C, read-out: MIC): > 100 µg/mL
- MIC (K. pneumoniae CQ4921; [2]): > 100 µg/mL
- MIC of compound in combination with PMB (K. pneumoniae CQ4921; PMB 0.25 μg/mL, strain C): > 100 µg/mL
- MIC of compound in combination with PMB (K. pneumoniae CQ4921; PMB 0.5 μg/mL, strain C): 1.6 µg/mL
- MIC of compound in combination with colistin (K. pneumoniae CQ4921; colistin 0.06 μg/mL, strain C): > 100 µg/mL
- MIC of compound in combination with colistin (K. pneumoniae CQ4921; colistin 0.125 μg/mL, strain C): > 100 µg/mL
- MIC of compound in combination with colistin (K. pneumoniae CQ4921; colistin 0.25 μg/mL, strain C): 3.1 µg/mL
- MIC of compound in combination with colistin (K. pneumoniae CQ4921; colistin 0.5 μg/mL, strain C): 1.6 µg/mL
- MICA(A + B) (MIC of compound in combination with colistin) (K. pneumoniae CQ4921; [3]): 3.125 µg/mL
- MICB(A + B) (MIC of colistin in combination with compound) (K. pneumoniae CQ4921; [3]): 0.25 µg/mL
- Interpretation (of FICI) (K. pneumoniae CQ4921; compound + colistin): Additive (from 0.5 to 1.0 were additive)
- FICI (K. pneumoniae CQ4921; [4]): 0.52
- MIC of colistin in combination with the compound (E. cloacae CQ1941; Cpd conc. 0.4 μg/mL, strain D): > 0.5 µg/mL
- MIC of colistin in combination with the compound (E. cloacae CQ1941; Cpd conc. 0.8 μg/mL, strain D): 0.5 µg/mL
- MIC of colistin in combination with the compound (E. cloacae CQ1941; Cpd conc. 3.125 μg/mL, strain D): 0.25 µg/mL
- MIC of colistin in combination with the compound (E. cloacae CQ1941; Cpd conc. 6.25 μg/mL, strain D): 0.25 µg/mL
- MIC of colistin in combination with the compound (E. cloacae CQ1941; Cpd conc. 12.5 μg/mL, strain D): 0.25 µg/mL
- MIC of colistin in combination with the compound (E. cloacae CQ1941; Cpd conc. […], strain D): 0.25 µg/mL
- MIC (E. cloacae CQ1941; agent alone, no adjuvant (polymyxin conc. 0), strain D, read-out: MIC): > 100 µg/mL
- MIC (E. cloacae CQ1941; [2]): > 100 µg/mL
- MIC of compound in combination with PMB (E. cloacae CQ1941; PMB 0.25 μg/mL, strain D): > 100 µg/mL
- MIC of compound in combination with PMB (E. cloacae CQ1941; PMB 0.5 μg/mL, strain D): 1.6 µg/mL
- MIC of compound in combination with colistin (E. cloacae CQ1941; colistin 0.06 μg/mL, strain D): > 100 µg/mL
- MIC of compound in combination with colistin (E. cloacae CQ1941; colistin 0.125 μg/mL, strain D): > 100 µg/mL
- MIC of compound in combination with colistin (E. cloacae CQ1941; colistin 0.25 μg/mL, strain D): 1.6 µg/mL
- MIC of compound in combination with colistin (E. cloacae CQ1941; colistin 0.5 μg/mL, strain D): 0.8 µg/mL
- MICB(A + B) (MIC of colistin in combination with compound) (E. cloacae CQ1941; [3]): 0.25 µg/mL
- Interpretation (of FICI) (E. cloacae CQ1941; compound + colistin): Additive (from 0.5 to 1.0 were additive)
- FICI (E. cloacae CQ1941; [4]): 0.52
- MIC of colistin in combination with the compound (K. pneumoniae CQ1947; Cpd conc. 0.4 μg/mL, strain F): > 0.5 µg/mL
- MIC of colistin in combination with the compound (K. pneumoniae CQ1947; Cpd conc. 0.8 μg/mL, strain F): > 0.5 µg/mL
- MIC of colistin in combination with the compound (K. pneumoniae CQ1947; Cpd conc. 3.125 μg/mL, strain F): 0.5 µg/mL
- MIC of colistin in combination with the compound (K. pneumoniae CQ1947; Cpd conc. 6.25 μg/mL, strain F): 0.5 µg/mL
- MIC of colistin in combination with the compound (K. pneumoniae CQ1947; Cpd conc. 12.5 μg/mL, strain F): 0.5 µg/mL
- MIC of colistin in combination with the compound (K. pneumoniae CQ1947; Cpd conc. […], strain F): > 0.5 µg/mL
- MIC (K. pneumoniae CQ1947; agent alone, no adjuvant (polymyxin conc. 0), strain F, read-out: MIC): > 100 µg/mL
- MIC (K. pneumoniae CQ1947; [2]): > 100 µg/mL
- MIC of compound in combination with PMB (K. pneumoniae CQ1947; PMB 0.25 μg/mL, strain F): > 100 µg/mL
- MIC of compound in combination with PMB (K. pneumoniae CQ1947; PMB 0.5 μg/mL, strain F): 3.1 µg/mL
- MIC of compound in combination with colistin (K. pneumoniae CQ1947; colistin 0.06 μg/mL, strain F): > 100 µg/mL
- MIC of compound in combination with colistin (K. pneumoniae CQ1947; colistin 0.125 μg/mL, strain F): > 100 µg/mL
- MIC of compound in combination with colistin (K. pneumoniae CQ1947; colistin 0.25 μg/mL, strain F): > 100 µg/mL
- MIC of compound in combination with colistin (K. pneumoniae CQ1947; colistin 0.5 μg/mL, strain F): 3.1 µg/mL
- MICA(A + B) (MIC of compound in combination with colistin) (K. pneumoniae CQ1947; [3]): 3.125 µg/mL
- MICB(A + B) (MIC of colistin in combination with compound) (K. pneumoniae CQ1947; [3]): 0.5 µg/mL
- Interpretation (of FICI) (K. pneumoniae CQ1947; compound + colistin): Indifferent (1.0 to 4.0 were indifferent)
- FICI (K. pneumoniae CQ1947; [4]): 1.016
- IC50 (Caco-2 cells; Homo sapiens, Caco-2, 72 h, Colistin 0.25 μg/mL): 54.7 ± 1.04 µM
- IC50 (Caco-2 cells; Homo sapiens, Caco-2, 72 h, Colistin 0.5 μg/mL): 52.5 ± 2.28 µM
- IC50 (Caco-2 cells; Homo sapiens, Caco-2, 72 h, No polymyxin): 54.2 ± 2.77 µM
- IC50 (Caco-2 cells; Homo sapiens, Caco-2, 72 h, PMB 0.25 μg/mL): 50.5 ± 0.15 µM
- IC50 (Caco-2 cells; Homo sapiens, Caco-2, 72 h, PMB 0.5 μg/mL): 52.2 ± 1.77 µM
- IC50 (Caco-2 cells; Homo sapiens, Caco-2, 72 h, tested alone (no polymyxin adjuvant)): 17.2 µg/mL
- IC50 (Caco-2 cells; No polymyxin, 72 h): 54.3 µM
- IC50 (HEK-293T cells; Homo sapiens, HEK-293T, Colistin 0.25 μg/mL): 69.4 ± 2.58 µM
- IC50 (HEK-293T cells; Homo sapiens, HEK-293T, Colistin 0.5 μg/mL): 65.9 ± 3.75 µM
- IC50 (HEK-293T cells; Homo sapiens, HEK-293T, No polymyxin): 65.8 ± 1.28 µM
- IC50 (HEK-293T cells; Homo sapiens, HEK-293T, PMB 0.125 μg/mL): 64.6 ± 0.87 µM
- IC50 (HEK-293T cells; Homo sapiens, HEK-293T, PMB 0.25 μg/mL): 65.32 ± 0.4 µM
- IC50 (HEK-293T cells; Homo sapiens, HEK-293T, PMB 0.5 μg/mL): 67.7 ± 1.22 µM
- IC50 (HEK-293T cells; Homo sapiens, HEK-293T, tested alone (no polymyxin adjuvant)): 20.8 µg/mL
- IC50 (HEK-293T cells; No polymyxin): 65.8 µM
- MIC [1]: 12.6 µM (≈ 3.99 µg/mL)
